Results published in ChEMBL document CHEMBL4414667, “Uncarialins A-I, Monoterpenoid Indole Alkaloids from Uncaria rhynchophylla as Natural Agonists of the 5-HT1A Receptor” (J Nat Prod, 2019).

Target: T1, 5-hydroxytryptamine receptor 1A (Homo sapiens, UniProt P08908)
T1 sequence (P08908 whole entry): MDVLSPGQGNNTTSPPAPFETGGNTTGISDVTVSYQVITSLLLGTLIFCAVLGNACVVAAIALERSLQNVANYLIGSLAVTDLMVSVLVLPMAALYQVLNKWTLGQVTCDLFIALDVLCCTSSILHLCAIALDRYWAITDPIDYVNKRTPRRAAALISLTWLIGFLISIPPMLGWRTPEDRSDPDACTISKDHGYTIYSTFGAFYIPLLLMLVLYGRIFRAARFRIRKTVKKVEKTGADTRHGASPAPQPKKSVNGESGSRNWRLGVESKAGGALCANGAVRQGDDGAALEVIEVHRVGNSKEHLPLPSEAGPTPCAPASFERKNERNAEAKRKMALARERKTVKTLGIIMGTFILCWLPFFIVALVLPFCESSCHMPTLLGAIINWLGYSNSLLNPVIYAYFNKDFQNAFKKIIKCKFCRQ
Experiment: Agonist activity at human 5HT1A receptor expressed in CHOK1 cells incubated for 16 hrs followed by forskolin-stimulation and measured after 2 hrs by dual-glo luciferase reporter gene assay
Format: cell-based

Going from C=C[C@H]1CN2CCc3c([nH]c4ccccc34)[C@H]2C[C@@H]1[C@H](CO)C(=O)OC to C=C[C@H]1CN2CCc3c([nH]c4ccccc34)[C@H]2C[C@@H]1[C@@H](CO)C(=O)OC, the EC50 falls from 54.4 µM to 0.1 µM (540-fold).

First: C=C[C@H]1CN2CC[C@]3(O[C@@H]2C[C@@H]1/C(=C\OC)C(=O)OC)C(=O)Nc1ccccc13
Second: C=C[C@H]1CN2CC[C@@]3(C(=O)Nc4ccccc43)[C@@H]2C[C@@H]1/C(=C\OC)C(=O)OC [ISOCORYNOXEINE]
The EC50 of the first is lower: 10.1 µM for the first, greater than 100 µM for the second.

C=C[C@H]1CN2CCc3c([nH]c4ccccc34)[C@@H]2C[C@@H]1/C(=C\OC)C(=O)OC and CC[C@H]1CN2CCc3c([nH]c4ccccc34)[C@H]2C[C@H]1/C(=C\OC)C(=O)OC cannot be ordered by EC50: greater than 100 µM for the first, greater than 100 µM for the second.

Compared with CC[C@H]1CN2CC[C@@]3(C(=O)Nc4ccccc43)[C@@H]2C[C@@H]1/C(=C\OC)C(=O)OC [ISORHYNCHOPHYLLINE], CC[C@H]1CN2CC[C@]3(C(=O)Nc4ccccc43)[C@@H]2C[C@@H]1/C(=C\OC)C(=O)OC [RHYNCHOPHYLLINE] is 5.2-fold higher in EC50: 2 µM for the first, 10.3 µM for the second. The first is the more potent here.

Compared with COC(=O)C1=CO[C@@H](C)[C@@H]2CN3CCc4c([nH]c5ccccc45)[C@@H]3C[C@H]12 [TETRAHYDROALSTONINE], COC(=O)C1=CO[C@@H](O[C@@H]2O[C@H](CO)[C@@H](O)[C@H](O)[C@H]2O)[C@H]2[C@@H]1C[C@H]1c3[nH]c4ccccc4c3CCN1C[C@@H]2O is lower in EC50: greater than 100 µM for the first, 1.6 µM for the second. The second is the more potent here.

Compared with CC[C@H]1CN2CCc3c([nH]c4ccccc34)[C@H]2C[C@@H]1[C@H](CO)C(=O)OC, CC[C@H]1CN2CCc3c([nH]c4ccccc34)[C@H]2C[C@@H]1[C@@H](CO)C(=O)OC is lower in EC50: greater than 100 µM for the first, 2.2 µM for the second.

CC[C@H]1C[N@+]2([O-])CCc3c([nH]c4ccccc34)[C@H]2C[C@H]1/C(=C\OC)C(=O)OC and CC[C@H]1C[N+]2([O-])CCc3c([nH]c4ccccc34)[C@H]2C[C@@H]1/C(=C\OC)C(=O)OC (stereo partly drawn) cannot be ordered by EC50: greater than 100 µM for the first, greater than 100 µM for the second.

C=C[C@H]1[C@H](O[C@@H]2O[C@H](CO)[C@@H](O)[C@H](O)[C@H]2O)OC=C2C(=O)N3CCc4c([nH]c5ccccc45)[C@@H]3C[C@H]21 and C=C[C@H]1[C@H](O[C@@H]2O[C@H](CO)[C@@H](O)[C@H](O)[C@H]2O)OC=C2C(=O)N3CCc4c([nH]c5ccccc45)[C@H]3C[C@H]21 cannot be ordered by EC50: greater than 100 µM for the first, greater than 100 µM for the second.

Going from C=C[C@H]1CN2CC[C@]3(O)C(=Nc4ccccc43)[C@H]2C[C@@H]1/C(=C\OC)C(=O)OC to C=C[C@H]1C[N@@+]2([O-])CCc3c([nH]c4ccccc34)[C@H]2C[C@@H]1/C(=C\OC)C(=O)OC, the EC50 falls from greater than 100 µM to 85 µM.

C/C=C1/C[N+]2([O-])CCc3c([nH]c4ccccc34)[C@@H]2C[C@@H]1/C(=C\OC)C(=O)OC (stereo partly drawn) and C/C=C1\CN2CCc3c([nH]c4ccccc34)[C@H]2C[C@@H]1/C(=C\OC)C(=O)OC cannot be ordered by EC50: greater than 100 µM for the first, greater than 100 µM for the second.

First: C=C[C@H]1C[N@@+]2([O-])CCc3c([nH]c4ccccc34)[C@H]2C[C@@H]1[C@@H](CO)C(=O)OC
Second: C/C=C1\C[N@@+]2([O-])CCc3c([nH]c4ccccc34)[C@@H]2C[C@@H]1[C@H](CO)C(=O)OC
The EC50 of the first is higher: greater than 500 µM for the first, 11.4 µM for the second.

COC(=O)C1=CO[C@@H](O[C@@H]2O[C@H](CO)[C@@H](O)[C@H](O)[C@H]2O)[C@@H]2[C@@H]3CN4CCc5c([nH]c6ccccc56)[C@]4(C[C@H]12)O3 showed an EC50 of 10.2 µM.
